For orientation: EC50 means the concentration that produces a half-maximal response. The low end stands for a more potent agent, the high end for a less potent agent.

In one assay the target is T1, Human GIP R (Homo sapiens, UniProt P48546).
T1 construct: expressed in transfected cells; host or cells: CHO
T1 sequence (P48546 22-466): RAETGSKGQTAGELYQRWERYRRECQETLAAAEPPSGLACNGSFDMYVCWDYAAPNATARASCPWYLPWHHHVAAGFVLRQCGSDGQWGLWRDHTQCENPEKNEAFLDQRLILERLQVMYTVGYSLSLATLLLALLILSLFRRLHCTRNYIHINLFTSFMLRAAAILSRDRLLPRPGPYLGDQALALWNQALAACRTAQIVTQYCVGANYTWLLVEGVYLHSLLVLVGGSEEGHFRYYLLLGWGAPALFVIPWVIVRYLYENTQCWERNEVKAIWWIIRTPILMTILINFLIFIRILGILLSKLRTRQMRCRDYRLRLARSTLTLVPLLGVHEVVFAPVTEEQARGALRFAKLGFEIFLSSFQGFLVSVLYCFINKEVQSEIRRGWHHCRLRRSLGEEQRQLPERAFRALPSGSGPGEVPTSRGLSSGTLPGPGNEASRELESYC
As to the kind of experiment: cAMP (HTRF) activity in CHO cells stably overexpressing GIP receptor. It is filed as cell-based. As to conditions: for Human GIP R Rel. A (Relative Activity): EC50 of human GIP / EC50 of compound. In outline: (§1)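 Cells resuspended in HBSS are incubated with compound for 60 min at room temperature, then with HTRF cAMP detection reagent for a further 60 min. Concentration-response fits give agonist EC50 values in nM.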
Background: In TR-FRET formats the signal depends on donor and acceptor labels being close together.

In a further assay the target is Human GLP-1R (Homo sapiens, UniProt P43220). The assay is described as follows: cAMP (HTRF) activity in HEK-293 cells stably overexpressing human GLP-1 receptor. It is filed as cell-based. Also on record: expressed in transfected cells; host or cells: HEK-293. The following applies: for Human GLP-1R Rel. A (Relative Activity): EC50 of human GLP-1 (7-37) / EC50 of compound; for EC50: stable transfected cell cAMP activity, at least 3 independent tests. A digest of the protocol: as §1
Chain of Human GLP-1R (P43220 24-463): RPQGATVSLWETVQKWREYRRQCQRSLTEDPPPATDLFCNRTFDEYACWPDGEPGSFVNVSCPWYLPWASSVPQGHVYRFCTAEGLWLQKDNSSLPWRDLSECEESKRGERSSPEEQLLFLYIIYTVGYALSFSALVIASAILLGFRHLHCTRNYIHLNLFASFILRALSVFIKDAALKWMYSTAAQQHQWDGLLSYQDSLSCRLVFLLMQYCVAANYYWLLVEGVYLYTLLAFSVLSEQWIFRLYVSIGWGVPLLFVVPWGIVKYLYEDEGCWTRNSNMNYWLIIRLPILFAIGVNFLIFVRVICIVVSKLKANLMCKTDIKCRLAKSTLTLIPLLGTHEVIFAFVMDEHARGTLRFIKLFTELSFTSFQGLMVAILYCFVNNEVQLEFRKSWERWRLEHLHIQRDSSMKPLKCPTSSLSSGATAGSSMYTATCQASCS

In another assay the test system is RIN-m5F cells. It is filed as cell-based, rat. The following applies: for Rel. A (Relative Activity) on RIN-m5F: relative to GLP-1(7-37). In outline:
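After 60 min room-temperature exposure of HBSS-suspended RIN-m5F cells to compound and another 60 min with detection reagent, cellular cAMP level was determined.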

The next assay deals with 3T3-L1 adipocytes. The following applies: for Rel. A (Relative Activity) on 3T3-L1 adipocyte: relative to GIP. In outline: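 Compound-induced cAMP was measured in mature 3T3-L1 adipocytes after 60 min room-temperature exposure to a 10-concentration, 3-fold dilution series, followed by 60 min with kit detection reagent and curve fitting. Differentiation used IBMX/dexamethasone/insulin (5 days), insulin with 10 uM rosiglitazone (3 days), then 2–3 days in 10% FBS.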

The target in the next assay is T2, Human GCG R (Homo sapiens, UniProt P47871).
T2 construct: expressed in transfected cells; host or cells: HEK-293
T2 sequence (P47871 26-477): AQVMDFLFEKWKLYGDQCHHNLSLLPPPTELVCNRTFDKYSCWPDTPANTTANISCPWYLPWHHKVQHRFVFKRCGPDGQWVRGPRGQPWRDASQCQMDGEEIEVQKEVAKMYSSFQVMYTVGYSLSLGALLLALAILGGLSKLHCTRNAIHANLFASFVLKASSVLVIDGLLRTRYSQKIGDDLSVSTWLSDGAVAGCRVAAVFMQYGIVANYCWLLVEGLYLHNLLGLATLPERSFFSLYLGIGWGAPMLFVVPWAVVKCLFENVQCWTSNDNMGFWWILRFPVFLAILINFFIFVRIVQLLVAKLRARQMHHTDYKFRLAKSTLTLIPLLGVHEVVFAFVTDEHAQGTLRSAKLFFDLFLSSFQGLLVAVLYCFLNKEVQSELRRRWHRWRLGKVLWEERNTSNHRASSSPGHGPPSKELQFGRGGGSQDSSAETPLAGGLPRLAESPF
The assay is described as follows: cAMP (HTRF) activity in HEK-293 cells stably overexpressing human GCG receptor. It is filed as cell-based. As to conditions: for Human GCG R Rel. A (Relative Activity): EC50 of human GCG / EC50 of compound. In outline:
as §1

The subject of assay [1] is human primary liver cells. It is filed as cell-based. The following applies: for Rel. A (Relative Activity) on human primary liver cells: relative to GCG. A digest of the protocol:
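cAMP readout after 60 min with detection reagent, following 60 min room-temperature compound incubation. Cells were primary human liver cells thawed at 37° C and resuspended in HBSS.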

Where [2] appears, read: stable transfected cell cAMP activity, at least 3 independent tests.

Starred links: 1 amine or outer side, 2 acyl side, 3 side chain; linkers in the order of their positions; H or OH if unused. Non-standard residues stand in square brackets, D forms with d. Residues, ends and D or L forms follow the SMILES beside them. Groups on a side chain read outwards from the residue. *: point of attachment. C20 diacid = O=C(O)CCCCCCCCCCCCCCCCCCC(=O)*; αMePhe(2-F) = C[C@](N)(Cc1ccccc1F)C(=O)O; γGlu = O=C(O)[C@H](CCC(=O)[*:2])N[*:1]; αMeL = CC(C)C[C@](C)(N)C(=O)O; AEEA = NCCOCCOCC(=O)O; Ac3c = NC1(C(=O)O)CC1; Aib = CC(C)(N)C(=O)O

As for `CC[C@H](C)[C@H](NC(=O)[C@H](Cc1ccccc1)NC(=O)[C@H](C)NC(=O)C(C)(C)NC(=O)[C@H](CCC(N)=O)NC(=O)[C@H](C)NC(=O)[C@H](CCCCNC(=O)COCCOCCNC(=O)COCCOCCNC(=O)CC[C@H](NC(=O)CCCCCCCCCCCCCCCCCCC(=O)O)C(=O)O)NC(=O)[C@H](CCCCN)NC(=O)[C@H](CC(=O)O)NC(=O)[C@H](CC(C)C)NC(=O)[C@](C)(CC(C)C)NC(=O)[C@@H](NC(=O)[C@H](CO)NC(=O)[C@H](Cc1ccc(O)cc1)NC(=O)[C@H](CC(=O)O)NC(=O)[C@H](CO)NC(=O)[C@@H](NC(=O)[C@](C)(Cc1ccccc1F)NC(=O)[C@@H](NC(=O)CNC(=O)[C@H](Cc1c[nH]cn1)NC(=O)C(C)(C)NC(=O)[C@@H](N)Cc1ccc(O)cc1)[C@@H](C)O)[C@@H](C)O)[C@@H](C)CC)C(=O)N[C@@H](CCC(=O)O)C(=O)N[C@@H](Cc1ccc(O)cc1)C(=O)N[C@@H](CC(C)C)C(=O)N[C@@H](CC(C)C)C(=O)N[C@@H](CCC(=O)O)C(=O)NC(C)(C)C(=O)N[C@@H](Cc1c[nH]cn1)C(=O)N1CCC[C@H]1C(=O)N[C@@H](CO)C(=O)N[C@@H](CO)C(=O)NCC(=O)N[C@@H](CCC(N)=O)C(=O)N1CCC[C@H]1C(=O)N1CCC[C@H]1C(=O)N1CCC[C@H]1C(=O)N[C@@H](CO)C(N)=O` [Compound 6] (H-Y[Aib]HGT[αMePhe(2-F)]TSDYSI[αMeL]LDKK([AEEA-AEEA-γGlu-C20 diacid])AQ[Aib]AFIEYLLE[Aib]HPSSGQPPPS-NH2; N-terminus assumed), the “Human GIP R Rel. A (Relative Activity)” value on Human GIP R is reported as 1292.86%. For the same compound, the EC50 at Human GIP R (setting [2]) was found to be 0.014 nM; on Human GLP-1R it was 0.02 nM; in the assay on RIN-m5F cells, 1.59 nM; in the assay with 3T3-L1 adipocytes, 1.01 nM; on Human GCG R (setting [2]), 0.058 nM; in assay [1] it was 0.299 nM. Also, on Human GLP-1R, the “Human GLP-1R Rel. A (Relative Activity)” value was found to be 220.00%. Also, the “Rel. A (Relative Activity) on RIN-m5F” value in the assay with RIN-m5F cells is reported as 64.74%. For the same compound, in the assay with 3T3-L1 adipocytes, the “Rel. A (Relative Activity) on 3T3-L1 adipocyte” value is listed as 374.58%. On Human GCG R, the “Human GCG R Rel. A (Relative Activity)” value is 98.28%. Moreover, the “Rel. A (Relative Activity) on human primary liver cells” value in assay [1] amounted to 1301.34%.

In the case of `CC[C@H](C)[C@H](NC(=O)[C@H](Cc1ccccc1)NC(=O)[C@H](C)NC(=O)C(C)(C)NC(=O)[C@H](CCC(N)=O)NC(=O)[C@H](C)NC(=O)[C@H](CCCCNC(=O)COCCOCCNC(=O)COCCOCCNC(=O)CC[C@H](NC(=O)CCCCCCCCCCCCCCCCCCC(=O)O)C(=O)O)NC(=O)[C@H](CCCCN)NC(=O)[C@H](CC(=O)O)NC(=O)[C@H](CC(C)C)NC(=O)[C@](C)(CC(C)C)NC(=O)[C@@H](NC(=O)[C@H](CO)NC(=O)[C@H](Cc1ccc(O)cc1)NC(=O)[C@H](CC(=O)O)NC(=O)[C@H](CO)NC(=O)[C@@H](NC(=O)[C@](C)(Cc1ccccc1F)NC(=O)[C@@H](NC(=O)CNC(=O)[C@H](CCC(N)=O)NC(=O)C(C)(C)NC(=O)[C@@H](N)Cc1ccc(O)cc1)[C@@H](C)O)[C@@H](C)O)[C@@H](C)CC)C(=O)N[C@@H](CCC(=O)O)C(=O)N[C@@H](Cc1ccc(O)cc1)C(=O)N[C@@H](CC(C)C)C(=O)N[C@@H](CC(C)C)C(=O)N[C@@H](CCC(=O)O)C(=O)N[C@@H](CO)C(=O)N[C@@H](Cc1c[nH]cn1)C(=O)N1CCC[C@H]1C(=O)N[C@@H](CO)C(=O)N[C@@H](CO)C(=O)NC(C)(C)C(=O)N[C@@H](Cc1c[nH]cn1)C(=O)N1CCC[C@H]1C(=O)N1CCC[C@H]1C(=O)NC1(C(=O)N[C@@H](CO)C(N)=O)CC1` [Compound 43] (H-Y[Aib]QGT[αMePhe(2-F)]TSDYSI[αMeL]LDKK([AEEA-AEEA-γGlu-C20 diacid])AQ[Aib]AFIEYLLESHPSS[Aib]HPP[Ac3c]S-NH2), at Human GIP R, the “Human GIP R Rel. A (Relative Activity)” value amounted to 441.46%. Besides, on Human GLP-1R, the “Human GLP-1R Rel. A (Relative Activity)” value came out at 440.00% and the concentration giving a half-maximal response (EC50) came to 0.01 nM. Moreover, in the assay on RIN-m5F cells, the EC50 worked out at 0.26 nM and the “Rel. A (Relative Activity) on RIN-m5F” value worked out at 396.92%. Further, in the assay with 3T3-L1 adipocytes, the EC50 came out at 1.36 nM and the “Rel. A (Relative Activity) on 3T3-L1 adipocyte” value came out at 279.97%. The “Human GCG R Rel. A (Relative Activity)” value on Human GCG R amounted to 44.88%. Also, in assay [1], the EC50 was determined as 0.463 nM and the “Rel. A (Relative Activity) on human primary liver cells” value stood at 840.39%.

For the origin of these results see patent publication US20250129135A1, “Multi-Agonist and Use Thereof” (priority 2021, published 2025).
